Laboratory results taken from ChEMBL document CHEMBL4000244, “Probing A-form DNA: A fluorescent aminosugar probe and dual recognition by anthraquinone-neomycin conjugates” (Bioorg Med Chem, 2017).
The source made the active and inactive calls. No cut-off for these calls is given here.

Legend:
[1] = Binding affinity to 5'-CGGCGGGC-3' DNA hairpin assessed as change in fluorescence intensity at 1 uM after 45 mins by fluorescence quenching analysis relative to control
[2] = Binding affinity to 5'-GCCGCCCG-3' DNA hairpin assessed as change in fluorescence intensity at 1 uM after 45 mins by fluorescence quenching analysis relative to control
[3] = Binding affinity to 5'-CGCCCCGG-3' DNA hairpin assessed as change in fluorescence intensity at 1 uM after 45 mins by fluorescence quenching analysis relative to control
[4] = Binding affinity to 5'-GCGGGGGG-3' DNA hairpin assessed as change in fluorescence intensity at 1 uM after 45 mins by fluorescence quenching analysis relative to control
[5] = Binding affinity to 5'-CGGGCGGC-3' DNA hairpin assessed as change in fluorescence intensity at 1 uM after 45 mins by fluorescence quenching analysis relative to control
[6] = Binding affinity to 5'-GCCGGGGC-3' DNA hairpin assessed as change in fluorescence intensity at 1 uM after 45 mins by fluorescence quenching analysis relative to control
[7] = Binding affinity to 5'-GCGGCCCG-3' DNA hairpin assessed as change in fluorescence intensity at 1 uM after 45 mins by fluorescence quenching analysis relative to control
[8] = Binding affinity to 5'-CGGCCGGG-3' DNA hairpin assessed as change in fluorescence intensity at 1 uM after 45 mins by fluorescence quenching analysis relative to control
[9] = Binding affinity to 5'-GGCCGCGC-3' DNA hairpin assessed as change in fluorescence intensity at 1 uM after 45 mins by fluorescence quenching analysis relative to control
[10] = Binding affinity to 5'-CGCGCCGC-3' DNA hairpin assessed as change in fluorescence intensity at 1 uM after 45 mins by fluorescence quenching analysis relative to control
[11] = Binding affinity to 5'-GCCGCGCC-3' DNA hairpin assessed as change in fluorescence intensity at 1 uM after 45 mins by fluorescence quenching analysis relative to control
[12] = Binding affinity to 5'-CCCGGGGG-3' DNA hairpin assessed as change in fluorescence intensity at 1 uM after 45 mins by fluorescence quenching analysis relative to control
[13] = Binding affinity to 5'-CGGCGGCG-3' DNA hairpin assessed as change in fluorescence intensity at 1 uM after 45 mins by fluorescence quenching analysis relative to control
[14] = Binding affinity to 5'-CGCCCCCC-3' DNA hairpin assessed as change in fluorescence intensity at 1 uM after 45 mins by fluorescence quenching analysis relative to control
[15] = Binding affinity to 5'-CCGGCGCC-3' DNA hairpin assessed as change in fluorescence intensity at 1 uM after 45 mins by fluorescence quenching analysis relative to control
[16] = Binding affinity to 5'-GCCCGCCC-3' DNA hairpin assessed as change in fluorescence intensity at 1 uM after 45 mins by fluorescence quenching analysis relative to control
[17] = Binding affinity to 5'-GGCCGGGC-3' DNA hairpin assessed as change in fluorescence intensity at 1 uM after 45 mins by fluorescence quenching analysis relative to control
[18] = Binding affinity to 5'-CCCGCCGC-3' DNA hairpin assessed as change in fluorescence intensity at 1 uM after 45 mins by fluorescence quenching analysis relative to control
[19] = Binding affinity to 5'-CCGCCCGC-3' DNA hairpin assessed as change in fluorescence intensity at 1 uM after 45 mins by fluorescence quenching analysis relative to control
[20] = Binding affinity to 5'-GCCCCCCG-3' DNA hairpin assessed as change in fluorescence intensity at 1 uM after 45 mins by fluorescence quenching analysis relative to control
[21] = Binding affinity to 5'-CGCCGCCG-3' DNA hairpin assessed as change in fluorescence intensity at 1 uM after 45 mins by fluorescence quenching analysis relative to control
[22] = Binding affinity to 5'-GCCGGCCG-3' DNA hairpin assessed as change in fluorescence intensity at 1 uM after 45 mins by fluorescence quenching analysis relative to control
[23] = Binding affinity to 5'-CCGCGGCC-3' DNA hairpin assessed as change in fluorescence intensity at 1 uM after 45 mins by fluorescence quenching analysis relative to control
[24] = Binding affinity to 5'-CCCGCGGG-3' DNA hairpin assessed as change in fluorescence intensity at 1 uM after 45 mins by fluorescence quenching analysis relative to control
[25] = Binding affinity to 5'-GCGCCCGG-3' DNA hairpin assessed as change in fluorescence intensity at 1 uM after 45 mins by fluorescence quenching analysis relative to control
[26] = Binding affinity to 5'-GCGCCCCC-3' DNA hairpin assessed as change in fluorescence intensity at 1 uM after 45 mins by fluorescence quenching analysis relative to control
[27] = Binding affinity to 5'-CGCCGGCG-3' DNA hairpin assessed as change in fluorescence intensity at 1 uM after 45 mins by fluorescence quenching analysis relative to control
[28] = Binding affinity to 5'-GGGGGGCG-3' DNA hairpin assessed as change in fluorescence intensity at 1 uM after 45 mins by fluorescence quenching analysis relative to control
[29] = Binding affinity to 5'-GCCGCCGC-3' DNA hairpin assessed as change in fluorescence intensity at 1 uM after 45 mins by fluorescence quenching analysis relative to control
[30] = Binding affinity to 5'-GCGGGGCC-3' DNA hairpin assessed as change in fluorescence intensity at 1 uM after 45 mins by fluorescence quenching analysis relative to control
[31] = Binding affinity to 5'-GGCGCGGC-3' DNA hairpin assessed as change in fluorescence intensity at 1 uM after 45 mins by fluorescence quenching analysis relative to control
[32] = Binding affinity to d(G4C4)2 DNA major groove assessed as stabilization of A-from DNA conformation by measuring induction of sharper band at 265 nanometer at drug:DNA molar ratio of 1:1 after 30 mins by CD spectroscopic method
[33] = Binding affinity to 5'-CCCCGCCG-3' DNA hairpin assessed as change in fluorescence intensity at 1 uM after 45 mins by fluorescence quenching analysis relative to control
[34] = Binding affinity to 5'-CCGGCCCG-3' DNA hairpin assessed as change in fluorescence intensity at 1 uM after 45 mins by fluorescence quenching analysis relative to control
[35] = Binding affinity to 5'-GGCGGCGG-3' DNA hairpin assessed as change in fluorescence intensity at 1 uM after 45 mins by fluorescence quenching analysis relative to control
[36] = Binding affinity to 5'-GGCCCGCC-3' DNA hairpin assessed as change in fluorescence intensity at 1 uM after 45 mins by fluorescence quenching analysis relative to control

Activity [1]: 43.1%
Activity [2]: 45.8%
Activity [3]: 41.9%
Activity [4]: 38.1%
Activity [5]: 45.1%
Activity [6]: 43.2%
Activity [7]: 52.5%
Activity [8]: 41.4%
Activity [9]: 39.6%
Activity [10]: 50.9%
Activity [11]: 48.8%
Activity [12]: 38.7%
Activity [13]: 46.5%
Activity [14]: 25.1%
Activity [15]: 48.9%
Activity [16]: 47.8%
Activity [17]: 45.6%
Activity [18]: 48.9%
Activity [19]: 48.7%
Activity [20]: 19.8%
Activity [21]: 48.1%
Activity [22]: 45.3%
Activity [23]: 50.6%
Activity [24]: 40.3%
Activity [25]: 49.3%
Activity [26]: 45.7%
Activity [27]: 50.8%
Activity [28]: 46.3%
Activity [29]: 47.9%
Activity [30]: 40.4%
Activity [31]: 49.4%
Activity [32]: Active
Activity [33]: 41.4%
Activity [34]: 48%
Activity [35]: 46.8%
Activity [36]: 31.2%
SMILES: NCC1O[C@H](O[C@H]2[C@@H](O)[C@H](O[C@@H]3[C@@H](O)[C@H](N)C[C@H](N)[C@H]3O[C@H]3O[C@H](CN)[C@@H](O)[C@H](O)[C@H]3N)O[C@@H]2CSCCNC(=O)CCSCC(=O)Nc2ccc(-c3c4ccc(=O)cc-4oc4cc(O)ccc34)c(C(=O)O)c2)[C@H](N)[C@@H](O)[C@@H]1O (stereo partly specified)
